In patent publication US8263610B2, “Substituted imidazolyl-5,6-dihydrobenzo[N]isoquinoline compounds” (ArQule, Inc., priority 2008, dated 2012) one finds IC50 and inhibition data, which are given here for 9 molecules.

One experiment addresses T1, FGFR2(N549H) (Homo sapiens, UniProt P21802, N549H).
T1 construct: purchased Millipore 14-742
Kind of experiment: fluorescent ELISA assay for inhibitors of FGFR2 kinase. The note with it: 37 μM Pyk2 substrate, 12.5 μM ATP, 0.5 μM FGFR2 enzyme, 60 minutes. The format is biochemical. The method, then: The enzymatic assays described herein are conducted according to the following procedures from commercially available reagents. In one, non limiting, example, a fluorescent ELISA assay is used to identify and characterize inhibitors of FGFR2 kinase as described herein. This heterogeneous assay utilizes a biotinylated peptide with a tyrosine motif as a substrate and an anti-phospho-tyrosine antibody to measure phosphorylation of the substrate. The reaction is initiated by adding the test compound, 37 μM Pyk2 substrate (Midwest Biotech, Cat. #MBT2383), 12.5 μM ATP (Roche, Cat. #11 140 965 001) and 0.5 μM FGFR2 enzyme (Millipore, Cat. #14-742) sequentially to a non-binding polypropylene V-well plate. All reagents are in an assay buffer consisting of: 50 mM Tris-HCL, 0.02 mg/ml BSA, 10 mM MgCl2, 0.1 mM Na3VO4, 1 mM EGTA, 75 μM ATP, 0.01% NP-40, 2 mM DTT and 10% glycerol. The reaction is incubated for 60 minutes. As the reaction proceeds, FGFR2 phosphorylates tyrosines in the peptide. The reaction mixture is then moved to a blocked streptavidin-coated Nunc Maxisorb plate (coated with 100 ng streptavidin from Pierce (Cat. #15-124) per well), allowing for the capture of the biotinylated peptide. Peptides are captured for 30 minutes at room temperature, the phosphorylation of peptides continues during this phase. The reaction is stopped by washing the streptavidin-coated plate 6 times with TBST. Phosphorylated peptide is detected by adding anti-phospho-tyrosine antibody (Cell Signaling, Cat. #9411, diluted 1:3000) to the streptavidin-coated plate. Unbound anti-phospho-tyrosine antibody is removed by washing the streptavidin-coated plate 6 times with TBST. Secondary detection is performed using alkaline phosphatase tagged goat anti-mouse antibody (Pierce, Cat. #31320, diluted 1:4000) for one hour. Unbound secondary antibody is removed by washing the streptavidin-coated plate 6 times with TBST. The fluorescent readout is initiated by adding to the streptavidin-coated plate Promega Attophos substrate (Promega, Cat. #S1000, dilution=6 mg/10 ml), which, when dephosphorylated by alkaline phosphatase, emits a fluorescent signal of 595 nm in wavelength when excited by a signal of 400 nm in wavelength. The reading of the 595 nm signal is done on the Perkin Elmer Envision system. Compounds which prevent FGFR2 from phosphorylating the peptide result in a lower fluorescent signal. The 595 nm fluorescent signal is directly proportional to the activity of FGFR2. Thus, the inhibition of FGFR2 by compounds is monitored by the decrease in the 595 nm fluorescent signal.

In a further experiment the test system is DLD-1 cells. Kind of experiment: MTS assay, inhibition of cell growth. It is filed as cell-based. The following applies: Homo sapiens, compound at 10 μM, 72 hours. In a few lines:
(§1)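 Cells seeded at 3000/well in DMEM with 10% FBS, grown 18 h at 37 °C, then exposed to compounds for 72 h. Growth read by MTS/PMS reduction (4 h) as formazan absorbance at 492 nm, reflecting dehydrogenase activity of metabolically active cells.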
(Formazan colour is commonly taken as a measure of viable cells.)

The next experiment deals with Kato III cells. Kind of experiment: MTS assay, inhibition of cell growth. The format is cell-based. The note with it: Homo sapiens, compound at 10 μM, 72 hours. The method, boiled down:
as §1

The next experiment deals with MDA-MB-231 cells. Kind of experiment: MTS assay, inhibition of cell growth. The note with it: Homo sapiens, compound at 10 μM, 72 hours. It is filed as cell-based. The method, boiled down: as §1
A further experiment relates to NCI-H1299 cells. Kind of experiment: MTS assay, inhibition of cell growth. It is filed as cell-based. The note with it: Homo sapiens, compound at 10 μM, 72 hours. The method, boiled down:
as §1

Another experiment deals with PACA-2 cells. Kind of experiment: MTS assay, inhibition of cell growth. The format is cell-based. The note with it: compound at 10 μM, 72 hours. In a few lines: as §1

T1 sequence (P21802 22-821 N549H): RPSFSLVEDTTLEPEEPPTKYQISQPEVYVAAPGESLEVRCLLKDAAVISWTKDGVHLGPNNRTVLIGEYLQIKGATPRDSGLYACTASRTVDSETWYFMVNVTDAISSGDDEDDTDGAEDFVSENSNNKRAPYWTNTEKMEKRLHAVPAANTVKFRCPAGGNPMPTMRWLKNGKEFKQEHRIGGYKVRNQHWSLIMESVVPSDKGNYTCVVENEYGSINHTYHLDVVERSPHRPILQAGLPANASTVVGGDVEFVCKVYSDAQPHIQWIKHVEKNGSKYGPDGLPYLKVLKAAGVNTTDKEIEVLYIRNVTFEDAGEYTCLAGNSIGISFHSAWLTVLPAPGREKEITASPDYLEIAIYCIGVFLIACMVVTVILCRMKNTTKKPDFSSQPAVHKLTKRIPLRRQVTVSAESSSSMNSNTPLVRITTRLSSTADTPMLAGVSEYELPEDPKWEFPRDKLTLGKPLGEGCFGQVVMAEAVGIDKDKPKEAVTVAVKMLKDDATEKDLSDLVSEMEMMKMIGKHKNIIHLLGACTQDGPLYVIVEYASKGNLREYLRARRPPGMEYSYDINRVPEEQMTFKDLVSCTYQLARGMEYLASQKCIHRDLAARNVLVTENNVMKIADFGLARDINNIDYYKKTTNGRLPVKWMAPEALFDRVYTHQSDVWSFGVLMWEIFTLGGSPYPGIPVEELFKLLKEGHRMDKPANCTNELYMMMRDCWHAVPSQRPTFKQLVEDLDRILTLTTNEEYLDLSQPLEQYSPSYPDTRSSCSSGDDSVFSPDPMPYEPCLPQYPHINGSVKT

For the molecule `Clc1ccc(C2Cc3cnc4[nH]ncc4c3-c3ccccc32)c(Cl)c1` (stereo not shown) [7-(2,4-dichlorophenyl)-6,7-dihydro-3H-benzo[f]pyrazolo[3,4-c]isoquinoline], at FGFR2(N549H), the 50% inhibitory concentration (IC50) – broadly, the point on the concentration scale where inhibition reaches its midpoint – amounted to 2.51 µM.
On FGFR2(N549H), `Clc1ccc(C2Cc3cnc4[nH]ncc4c3-c3ccccc32)cc1Cl` (stereo not shown) [7-(3,4-dichlorophenyl)-6,7-dihydro-3H-benzo[f]pyrazolo[3,4-c]isoquinoline] came in with a 50% inhibitory concentration (IC50) of 20.8 µM.
Still for that read-out and setting: under `Fc1ccc(C2Cc3cnc4[nH]ncc4c3-c3ccccc32)cc1` (stereo not shown) [7-(4-fluorophenyl)-6,7-dihydro-3H-benzo[f]pyrazolo[3,4-c]isoquinoline] stands 4.07 µM; under `c1ccc(C2Cc3cnc4[nH]ncc4c3-c3ccccc32)cc1` (stereo not shown) [7-phenyl-6,7-dihydro-3H-benzo[f]pyrazolo[3,4-c]isoquinoline], 0.224 µM.
Same read-out and setting: under `Cc1cc(C)c2c(c1)-c1c(cnc3[nH]ncc13)CC2` [8,10-dimethyl-6,7-dihydro-3H-benzo[f]pyrazolo[3,4-c]isoquinoline] stands 6.81 µM.
Take `O=C(c1ccccc1)c1c[nH]c2ncnc(N3CCc4c(cnc5[nH]nc(Br)c45)C3)c12` [drawing 582]: the inhibition (as a rule, the change of the read-out against control, counted positive when it falls) at 10 µM in the experiment with DLD-1 cells is 50 to 74%; in the experiment on Kato III cells, 75 to 100%; in the experiment with MDA-MB-231 cells, 50 to 74%; in the experiment with NCI-H1299 cells, 75 to 100%; in the experiment on PACA-2 cells, 75 to 100%.
In the case of `CC(C)(C)OC(=O)N1CCc2c(cnc3[nH]nc(Br)c23)C1` [drawing 588, tert-butyl 1-bromo-3,6,8,9-tetrahydro-7H-pyrazolo[3,4-c][2,7]naphthyridine--7-carboxylate], the inhibition at 10 µM with DLD-1 cells, in the experiment on Kato III cells, in the experiment on MDA-MB-231 cells, in the experiment on NCI-H1299 cells and in the experiment on PACA-2 cells was 75 to 100% each time.
For the molecule `CCOC(=O)CNC(=O)N1CCc2c(cnc3[nH]ncc23)C1` [ethyl N-(3,6,8,9-tetrahydro-7H-pyrazolo[3,4-c][2,7]naphthyridin-7-ylcarbonyl)glycinate], the inhibition at 10 µM in the experiment on DLD-1 cells, with Kato III cells, in the experiment with MDA-MB-231 cells, in the experiment on NCI-H1299 cells and with PACA-2 cells was 75 to 100% each time.
For `CC(C)(C)OC(=O)NCc1cccc(-c2n[nH]c3ncc4c(c23)CCN(C(=O)OC(C)(C)C)C4)c1` [tert-butyl 1-(3-{[(tert-butoxycarbonyl)amino]methyl}phenyl)-3,6,8,9-tetrahydro-7H-pyrazolo[3,4-c][2,7]naphthyridine--7-carboxylate], the inhibition at 10 µM in the experiment on DLD-1 cells lay in the range of 75 to 100%; in the experiment with Kato III cells, 75 to 100%; with MDA-MB-231 cells, 75 to 100%; in the experiment with NCI-H1299 cells, 50 to 74%; in the experiment with PACA-2 cells, 75 to 100%.
